The source of these data is patent US20250145715A1, “B7-H3 TARGETING FUSION PROTEINS AND METHODS OF USE THEREOF” (GT Biopharma, Inc., priority 2021, published 2025).

“Also recorded” adds a separate entry of the source.

Type in all cases: cell-based, human
Test [1] concerns myeloma cells (RPMI-8226, U266, MM1S, H929). As to the kind of experiment: IncuCyte Zoom NK cell killing of myeloma cells. An excerpt:
FIGS. 7A-7B illustrate the ability of peripheral blood NK cells with or without B7-H3-TriKE to kill myeloma cells in live imaging IncuCyte Zoom assays. FIG. 7A is a graph showing the effects with effector:target (E:T) ratios of 2:1 and 4:1 on MM1S cells. FIG. 7B is a graph showing the effects with effector:target (E:T) ratios of 2:1 and 4:1 on U266 cells.
FIGS. 8A-8D illustrate the ability of peripheral blood NK cells with or without B7-H3-TriKE to kill myeloma cells in live imaging IncuCyte Zoom assays. FIG. 8A is a graph showing the effects with effector:target (E:T) ratios of 2:1 and 4:1 on H929 cells. FIG. 8B is a graph showing the effects with effector:target (E:T) ratios of 2:1 and 4:1 on MM1S cells. FIG. 8C is a graph showing the effects with effector:target (E:T) ratios of 2:1 and 4:1 on RPMI-8226 cells. FIG. 8D is a graph showing the effects with effector:target (E:T) ratios of 2:1 and 4:1 on U266 cells.
The ability of peripheral blood NK cells with or without B7-H3-TriKE to kill myeloma cells was compared in live imaging IncuCyte Zoom assays with escalating doses of TriKE. Maximal killing occurred with 3 nM concentration.

The test system of a further test is T cells (CD56−CD3+). The test can be described thus: T cell proliferation in PBMCs, CellTrace Violet dilution. The note with it: 7 days. As for the experimental part: FIGS. 2A-2H illustrates that cam1615B7-H3 TriKE induces potent, and specific, natural killer (NK) cell proliferation. Peripheral blood mononuclear cells (PBMCs) were CellTrace Violet labeled and incubated for seven days at 5 nM equimolar concentrations of rhIL-15 or cam1615B7-H3 TriKE. On day 7, the cells were harvested and stained for flow cytometric evaluation. […] FIG. 2B is a graph illustrating pooled data showing the overall proportion of NK cells that proliferated. FIG. 2C is a graph illustrating pooled data showing the proportion of NK cells that highly proliferated (measured as proliferation beyond three divisions). FIG. 2D is a graph illustrating pooled data showing NK cell counts in the cultures (N=9). FIG. 2E is a representative histogram showing T cell (CD56− CD3+) proliferation. FIG. 2F is a graph illustrating pooled data showing the overall proportion of T cells proliferated. FIG. 2G is a graph illustrating pooled data showing the proportion of T cells highly proliferated. FIG. 2H is a graph illustrating pooled data showing T cell counts in the cultures (N=9). * p<0.05, ** p<0.01, *** p<0.001.
The wild-type IL-15 moiety in the cam1615B7-H3 TriKE was designed to induce targeted delivery of a proliferative signal to NK cells. To test this, proliferation assays evaluating dilution of a CellTrace dye over a 7-day period were carried out on PBMCs treated with no treatment (NT), monomeric rhIL-15 (IL15), or the TriKE (cam1615B7-H3). At the end of the seven days, cells were harvested and proliferation was evaluated by gating on CD56+CD3− cells. […] Since IL-15 acts on both NK cells and T cells, specificity was evaluated next by gating on T cells (CD56-CD3+).
To measure the ability of the TriKE to specifically induce NK cell expansion via the IL-15 moiety, PBMCs from healthy donors were labeled with CellTrace Violet Proliferation Dye (Invitrogen, Carlsbad, CA, USA) according to kit specifications. After staining, cells were cultured with TriKEs at noted concentrations, or equimolar concentrations of controls, and incubated in a humidified atmosphere containing 5% CO2 at 37° C. for seven days. Cells were harvested, stained for viability with Live/Dead reagent (Invitrogen, Carlsbad, CA, USA) and surface stained for anti-CD56 PE/Cy7 (Biolegend, San Diego, CA, USA) and anti-CD3 PE-CF594 (BD Biosciences, Franklin Lakes, NJ, USA) to gate on the viable CD56+ CD3− NK cell population or the CD56-CD3+ T cell population. Data analysis was performed using FlowJo software (FlowJo LCC, version 7.6.5, Ashland, OR, USA).

The next test deals with lung cancer cell lines. As to the kind of experiment: NK cell activation against lung cancer cell lines vs K562 / Raji. Here is the method: ADCC was measured in a flow cytometry assay by evaluating degranulation via CD107a (lysosomal-associated membrane protein LAMP-1) and intracellular IFNγ production. Upon thawing, normal donor and patient-derived PBMCs or ascites cells were rested overnight (37° C., 5% CO2) in RPMI 1640 media supplemented with 10% fetal calf serum (RPMI-10). The next morning, they were suspended with tumor-target cells or media after washing twice with RPMI-10. Cells were then incubated with TriKEs or controls for 10 min at 37° C. Fluorescein isothiocyate (FITC)-conjugated anti-human CD107a monoclonal antibody (BD Biosciences, San Jose, CA, USA) was then added. Following an hour 37° C. incubation, GolgiStop (1:1500, BD Biosciences) and GolgiPlug (1:1000, BD Biosciences) were added for 3 h. After washing with phosphate buffered saline, the cells were stained with PE/Cy 7-conjugated anti-CD56 mAb, APC/Cy 7-conjugated anti-CD16 mAb, and PE-CF594-conjugated anti-CD3 mAb (BioLegend, San Diego, CA, USA). Cells were incubated for 15 min at 4° C., washed, and fixed with 2% paraformaldehyde. Cells were then permeabilized using an intracellular perm buffer (BioLegend) to evaluate production of IFNγ through detection via aBV650 conjugated anti-human IFNγ antibody (BioLegend). Samples were washed and evaluated in an LSRII flow cytometer (BD Biosciences, San Jose, CA, USA). […]

For the substance “B7-H3 TriKE: camelid nanobodies targeting CD16 and B7-H3 joined by IL-15 and two linkers; sequence table equates the name with cam1615B7-H3”, the “NK cell mediated killing of myeloma lines” value in test [1] (3 nM B7-H3-TriKE, all four myeloma lines) is recorded as “statistically significant increase; also recorded: significantly enhanced NK cell mediated killing of myeloma cells”. Besides, the “TriKE concentration giving maximal killing” value in test [1] (escalating doses of TriKE, peripheral blood NK cells) is 3 nM.
Turning to “cam1615B7-H3: second-generation TriKE: humanized camelid anti-CD16 VHH, human wild-type IL-15, anti-B7-H3 mAb 376.96 scFv; SEQ ID NO:1”, the “overall T cell proliferation” value in the test with T cells (CD56−CD3+) (5 nM equimolar, listed as cam1615B7-H3 TriKE) is “Minimal T cell proliferation; also recorded: some induction of overall T cell proliferation”. For the same substance, in the test with T cells (CD56−CD3+) (5 nM, vs untreated), the “T cell numbers in culture” value was “did not differ between the untreated and TriKE-treated groups”; the “T cells robustly proliferating (past three divisions)” value is on record as “significantly less proliferation than the untreated group”. The “NK cell degranulation and IFNγ production against lung cancer cells vs K562 targets alone” value in the test with lung cancer cell lines is given as “higher than that seen when NK cells are incubated with K562 targets alone”. Moreover, the “B7-H3 specificity of activation against lung cancer cell lines” value in the test with lung cancer cell lines (vs B7-H3− Raji cells) is listed as “specific to B7-H3 expression”.
